pIC50: −log10 of the molar value.
biological target: CSF-1R (Homo sapiens, UniProt P07333); experiment: Peptide (non-phosphorylated) assay, fluorescence polarization competition immunoassay; format: biochemical; conditions: 0.7 nM CSF-1R, 308 μM SYEGNSYTFIDPTQ peptide, 1 mM ATP, 80 min; mean of at least three determinations; read-out: c-fms Peptide IC50
Method: The kinase reaction was initiated by adding 1 μL of 10 mM ATP in assay buffer. […] Positive and negative control wells were included on each plate, where 4% DMSO in assay buffer was substituted for the compound; in addition, positive control wells received 1.2 μL of 50 mM EDTA before the start of the reaction.
The plates were covered and incubated at room temperature for 80 min. Reactions were stopped by addition of 1.2 μL of 50 mM EDTA. Each well then received 10 μL of a 1:1:3 mixture of 10× anti-phosphotyrosine antibody, 10×PTK green tracer, and FP dilution buffer, respectively (Cat. # P2837, Invitrogen, Carlsbad, Calif.). The plates were covered, incubated for 30 min at room temperature, and the fluorescence polarization was read on an Analyst plate reader (Molecular Devices).

Chain of CSF-1R (P07333 20-972): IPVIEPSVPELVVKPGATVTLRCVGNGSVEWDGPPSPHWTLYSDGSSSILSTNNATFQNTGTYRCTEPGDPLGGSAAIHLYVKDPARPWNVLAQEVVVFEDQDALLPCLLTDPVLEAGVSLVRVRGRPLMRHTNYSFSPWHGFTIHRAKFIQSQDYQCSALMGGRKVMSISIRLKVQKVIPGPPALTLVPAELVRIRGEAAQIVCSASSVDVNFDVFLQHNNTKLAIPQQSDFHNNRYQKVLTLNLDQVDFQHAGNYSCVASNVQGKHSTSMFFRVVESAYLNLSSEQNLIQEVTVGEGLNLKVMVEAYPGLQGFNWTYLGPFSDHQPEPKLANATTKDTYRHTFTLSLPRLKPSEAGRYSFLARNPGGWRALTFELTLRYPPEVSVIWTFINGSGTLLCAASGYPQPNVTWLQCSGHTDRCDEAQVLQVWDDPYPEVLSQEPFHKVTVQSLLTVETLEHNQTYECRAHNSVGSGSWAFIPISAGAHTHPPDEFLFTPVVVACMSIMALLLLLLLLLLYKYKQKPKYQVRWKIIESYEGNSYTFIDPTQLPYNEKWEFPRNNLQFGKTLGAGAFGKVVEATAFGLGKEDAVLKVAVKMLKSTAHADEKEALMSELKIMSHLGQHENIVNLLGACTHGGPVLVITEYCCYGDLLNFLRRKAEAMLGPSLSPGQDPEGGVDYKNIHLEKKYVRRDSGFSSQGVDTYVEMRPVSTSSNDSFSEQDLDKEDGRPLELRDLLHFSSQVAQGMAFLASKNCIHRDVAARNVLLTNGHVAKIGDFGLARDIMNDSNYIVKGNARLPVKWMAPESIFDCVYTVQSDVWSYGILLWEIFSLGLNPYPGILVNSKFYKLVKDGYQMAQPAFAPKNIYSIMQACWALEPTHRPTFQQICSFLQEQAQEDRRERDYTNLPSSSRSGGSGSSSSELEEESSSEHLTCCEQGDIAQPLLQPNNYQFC

In order of rising pIC50:
1. NCCNC(=O)c1cn(C2CCCC2)c2nc(Nc3ccc(CCN4CCCC4)cc3)ncc2c1=O [Cpd 44, 8-cyclopentyl-5-oxo-2-[4-(2-pyrrolidin-1-yl-ethyl)-phenylamino]-5,8-dihydro-pyrido[2,3-d]pyrimidine-6-carboxylic acid (2-amino-ethyl)-amide]  6.96
2. O=C(c1cn(C2CCCC2)c2nc(Nc3ccc(CCN4CCCC4)cc3)ncc2c1=O)N1CCOCC1 [Cpd 42, 8-cyclopentyl-6-(morpholine-4-carbonyl)-2-[4-(2-pyrrolidin-1-yl-ethyl)-phenylamino]-8H-pyrido[2,3-d]pyrimidin-5-one]  7.24
3. O=C(NCCO)c1cn(C2CCCC2)c2nc(Nc3ccc(CCN4CCCC4)cc3)ncc2c1=O [Cpd 43, 8-cyclopentyl-5-oxo-2-[4-(2-pyrrolidin-1-yl-ethyl)-phenylamino]-5,8-dihydro-pyrido[2,3-d]pyrimidine-6-carboxylic acid (2-hydroxy-ethyl)-amide]  7.51
4. CN1CCN(CCc2ccc(Nc3ncc4c(=O)c(C(N)=O)cn(-c5ccc(Cl)cc5)c4n3)cc2)CC1 [Cpd 33, 8-(4-chloro-phenyl)-2-{4-[2-(4-methyl-piperazin-1-yl)-ethyl]-phenylamino}-5-oxo-5,8-dihydro-pyrido[2,3-d]pyrimidine-6-carboxylic acid amide]  7.70
5. C#Cc1ccc(-n2cc(C(N)=O)c(=O)c3cnc(Nc4ccc(CCN5CCN(C)CC5)cc4)nc32)cc1 [Cpd 30, 8-(4-ethynyl-phenyl)-2-{4-[2-(4-methyl-piperazin-1-yl)-ethyl]-phenylamino}-5-oxo-5,8-dihydro-pyrido[2,3-d]pyrimidine-6-carboxylic acid amide]  7.85
6. CCONC(=O)c1cn(C2CCCC2)c2nc(Nc3ccc(CCN4CCCC4)cc3)ncc2c1=O [Cpd 40, 8-cyclopentyl-5-oxo-2-[4-(2-pyrrolidin-1-yl-ethyl)-phenylamino]-5,8-dihydro-pyrido[2,3-d]pyrimidine-6-carboxylic acid ethoxy-amide]  8.17
7. CC(C)ONC(=O)c1cn(C2CCCC2)c2nc(Nc3ccc(CCN4CCCC4)cc3)ncc2c1=O [Cpd 41, 8-cyclopentyl-5-oxo-2-[4-(2-pyrrolidin-1-yl-ethyl)-phenylamino]-5,8-dihydro-pyrido[2,3-d]pyrimidine-6-carboxylic acid isopropoxy-amide]  8.39
8. CONC(=O)c1cn(-c2ccc(Cl)cc2)c2nc(Nc3ccc(CCN4CCN(C)CC4)cc3)ncc2c1=O [Cpd 34, 8-(4-chloro-phenyl)-2-{4-[2-(4-methyl-piperazin-1-yl)-ethyl]-phenylamino}-5-oxo-5,8-dihydro-pyrido[2,3-d]pyrimidine-6-carboxylic acid methoxy-amide]  8.42
9. C#Cc1ccc(-n2cc(C(=O)NOC)c(=O)c3cnc(Nc4ccc(CCN5CCCC5)cc4)nc32)cc1 [Cpd 32, 8-(4-ethynyl-phenyl)-5-oxo-2-[4-(2-pyrrolidin-1-yl-ethyl)-phenylamino]-5,8-dihydro-pyrido[2,3-d]pyrimidine-6-carboxylic acid methoxy-amide]  8.43
10. C#Cc1ccc(-n2cc(C(=O)NOC)c(=O)c3cnc(Nc4ccc(CCN5CCN(C)CC5)cc4)nc32)cc1 [Cpd 31, 8-(4-ethynyl-phenyl)-2-{4-[2-(4-methyl-piperazin-1-yl)-ethyl]-phenylamino}-5-oxo-5,8-dihydro-pyrido[2,3-d]pyrimidine-6-carboxylic acid methoxy-amide]  8.59
11. CONC(=O)c1cn(C2CCCC2)c2nc(Nc3ccc(C4CCN(C(C)=O)CC4)cc3)ncc2c1=O [Cpd 46, 2-[4-(1-acetyl-piperidin-4-yl)-phenylamino]-8-cyclopentyl-5-oxo-5,8-dihydro-pyrido[2,3-d]pyrimidine-6-carboxylic acid methoxy-amide]  8.59
12. CONC(=O)c1cn(C2CCCC2)c2nc(Nc3ccc(N4CCCC4)cc3)ncc2c1=O [Cpd 35, 8-cyclopentyl-5-oxo-2-(4-pyrrolidin-1-yl-phenylamino)-5,8-dihydro-pyrido[2,3-d]pyrimidine-6-carboxylic acid methoxy-amide]  8.66
13. CONC(=O)c1cn(C2CCCC2)c2nc(Nc3ccc(C(=O)N4CCCC4)cc3)ncc2c1=O [Cpd 36, 8-cyclopentyl-5-oxo-2-[4-(pyrrolidine-1-carbonyl)-phenylamino]-5,8-dihydro-pyrido[2,3-d]pyrimidine-6-carboxylic acid methoxy-amide]  8.68
14. CONC(=O)c1cn(C2CCCC2)c2nc(Nc3ccc(CCN4CCCC4=O)cc3)ncc2c1=O [Cpd 38, 8-cyclopentyl-5-oxo-2-{4-[2-(2-oxo-pyrrolidin-1-yl)-ethyl]-phenylamino}-5,8-dihydro-pyrido[2,3-d]pyrimidine-6-carboxylic acid methoxy-amide]  8.70
15. CONC(=O)c1cn(C2CCCC2)c2nc(Nc3ccc(C4CCNCC4)cc3)ncc2c1=O [Cpd 45, 8-cyclopentyl-5-oxo-2-(4-piperidin-4-yl-phenylamino)-5,8-dihydro-pyrido[2,3-d]pyrimidine-6-carboxylic acid methoxy-amide]  8.72
16. CCONC(=O)c1cn(C2CCCC2)c2nc(Nc3ccc(C4CCN(C(C)=O)CC4)cc3)ncc2c1=O [Cpd 47, 2-[4-(1-acetyl-piperidin-4-yl)-phenylamino]-8-cyclopentyl-5-oxo-5,8-dihydro-pyrido[2,3-d]pyrimidine-6-carboxylic acid ethoxy-amide]  8.72
17. CCONC(=O)c1cn(C2CCCC2)c2nc(Nc3ccc(CCN4CCN(C)CC4)cc3)ncc2c1=O [Cpd 49, 8-cyclopentyl-2-{4-[2-(4-methyl-piperazin-1-yl)-ethyl]-phenylamino}-5-oxo-5,8-dihydro-pyrido[2,3-d]pyrimidine-6-carboxylic acid ethoxy-amide]  8.77
18. CONC(=O)c1cn(C2CCCC2)c2nc(Nc3ccc(CN4CCCC4=O)cc3)ncc2c1=O [Cpd 37, 8-cyclopentyl-5-oxo-2-[4-(2-oxo-pyrrolidin-1-ylmethyl)-phenylamino]-5,8-dihydro-pyrido[2,3-d]pyrimidine-6-carboxylic acid methoxy-amide]  8.82
19. CONC(=O)c1cn(C2CCCC2)c2nc(Nc3ccc(CCN4CCN(C)CC4)cc3)ncc2c1=O [Cpd 48, 8-cyclopentyl-2-{4-[2-(4-methyl-piperazin-1-yl)-ethyl]-phenylamino}-5-oxo-5,8-dihydro-pyrido[2,3-d]pyrimidine-6-carboxylic acid methoxy-amide]  8.82
20. CONC(=O)c1cn(-c2ccc(C)c(C)c2)c2nc(Nc3ccc(CCN4CCCC4=O)cc3)ncc2c1=O [Cpd 50, 8-(3,4-dimethyl-phenyl)-5-oxo-2-{4-[2-(2-oxo-pyrrolidin-1-yl)-ethyl]-phenylamino}-5,8-dihydro-pyrido[2,3-d]pyrimidine-6-carboxylic acid methoxy-amide]  8.92
21. CONC(=O)c1cn(C2CCCC2)c2nc(Nc3ccc(CCN4CCCC4)cc3)ncc2c1=O [Cpd 39, 8-cyclopentyl-5-oxo-2-[4-(2-pyrrolidin-1-yl-ethyl)-phenylamino]-5,8-dihydro-pyrido[2,3-d]pyrimidine-6-carboxylic acid methoxy-amide]  8.96
22. CONC(=O)c1cn(-c2ccc(C)c(C)c2)c2nc(Nc3ccc(CCN4CCCC4)cc3)ncc2c1=O [Cpd 51, 8-(3,4-dimethyl-phenyl)-5-oxo-2-[4-(2-pyrrolidin-1-yl-ethyl)-phenylamino]-5,8-dihydro-pyrido[2,3-d]pyrimidine-6-carboxylic acid methoxy-amide]  9.20

Source: patent US20080114007A1 (priority 2006, published 2008)
